From patent US6888015B2, “Sphingolipid synthesis inhibitor” (Japan Science and Technology Agency, priority 2001, dated 2005)

What was measured:
[1] = tested on: biosynthesis of phosphatidylcholine; assay: Metabolic labeling of lipids with [14C]choline; assay type: cell-based, Chinese hamster; settings: 1 μM, 33° C., 4 hours
Protocol: CHO cells are seeded at the density of 1.0×10^6 cell in 5 mL of F12 medium containing 10% NBS, by per 60-mm dish, and cultured at 33° C. overnight. Then, the medium is changed to 1.5 mL of Nutridoma medium if necessary, various drugs are added and incubated at 4° C. for 15 minutes. Then, after addition of [^14C] serine (0.75 μCi) or [^14 C] choline (1.0 μCi) to the medium, cells were incubated at 33° C. for various periods of time.
Cells are washed twice with 2 mL of cold phosphate-buffered saline (PBS), and lysed with 900 μL of 0.1% sodium dodecyl sulfate (SDS). Then, 800 μL and 20 μL of lysate are used for lipid extraction and determination of protein concentration, respectively.
For the analysis of the lipid labeled by [^14C] choline, the lipid is separated by one-dimensional TLC using chloroform/methanol/acetic acid/H2O (25:15:4:2, volume ratio) as a developing solvent. […]
Radioactive lipid separated on the TLC plates are detected with image analyzer depicted above. After the collection of gels from TLC plates by scraping, the radioactivity of each lipid is determined by liquid scintillation counting and normalized to the protein concentration of cells.

[2] = target: T1, GlcCer synthase (Cricetulus griseus, UniProt A0A9J7CH29); assay: GlcCer synthase enzyme assay, CHO membrane fraction; assay type: biochemical, Chinese hamster; settings: 20 μM; substrate C6-NBD-Cer
T1 construct: Membrane fraction prepared from CHO cells is used as an enzyme source; endogenous in cells; host or cells: CHO cells, membrane fraction
T1 sequence (A0A9J7CH29 1-394): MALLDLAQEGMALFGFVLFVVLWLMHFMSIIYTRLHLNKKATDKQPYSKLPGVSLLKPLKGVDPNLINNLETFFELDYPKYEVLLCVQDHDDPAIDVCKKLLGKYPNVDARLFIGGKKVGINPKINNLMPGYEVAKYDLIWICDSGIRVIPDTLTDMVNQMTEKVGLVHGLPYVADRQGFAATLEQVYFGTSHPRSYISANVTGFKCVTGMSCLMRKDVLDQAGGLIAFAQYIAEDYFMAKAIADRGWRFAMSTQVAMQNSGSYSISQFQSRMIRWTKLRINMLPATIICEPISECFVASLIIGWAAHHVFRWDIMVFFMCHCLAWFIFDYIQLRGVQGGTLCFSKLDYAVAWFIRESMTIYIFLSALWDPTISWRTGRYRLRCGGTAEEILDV
Protocol: Membrane fraction prepared from CHO cells is used as an enzyme source.
Enzyme assays of SM synthesis and GlcCer synthase are carried out by using C6-NBD-Cer as a substrate as disclosed in Document 6.

CCCCCCCCCCCC(=O)NC(CO)CC(O)c1ccccc1 (stereo not shown) [HPA-12, N-(3-hydroxy-1-hydroxymethyl-3-phenylprol)dodecaneamide]
level of [14C]PC vs untreated cells [1]: almost equal | level of [14C]SM vs drug-untreated control level [1]: about half | C6-NBD-GlcCer formed (GlcCer synthase activity) [2]: 325.9 ± 17.1 pmol/mg protein/10 minutes | inhibition of GlcCer synthase [2]: Neither of SM synthase nor GlcCer synthase is inhibited
